Measured values taken from US20040209937A1, “Treatment of excessive osteolysis with indolinone compounds” (SUGEN, INC., priority 2003, published 2004).
“Also recorded” adds a separate entry of the source.

Columns and labels:
human CSF1R = target: T1, human CSF1R (Homo sapiens, UniProt P07333); assay: CSF1R phosphorylation in 3T3-huCSF1R cells (p-CSF1R Western blot after M-CSF stimulation); assay type: cell-based; conditions: M-CSF stimulated, FIG. 1
T1 construct: expressed in transfected cells; host or cells: NIH3T3 (3T3-huCSF1R)
T1 sequence (P07333 20-972): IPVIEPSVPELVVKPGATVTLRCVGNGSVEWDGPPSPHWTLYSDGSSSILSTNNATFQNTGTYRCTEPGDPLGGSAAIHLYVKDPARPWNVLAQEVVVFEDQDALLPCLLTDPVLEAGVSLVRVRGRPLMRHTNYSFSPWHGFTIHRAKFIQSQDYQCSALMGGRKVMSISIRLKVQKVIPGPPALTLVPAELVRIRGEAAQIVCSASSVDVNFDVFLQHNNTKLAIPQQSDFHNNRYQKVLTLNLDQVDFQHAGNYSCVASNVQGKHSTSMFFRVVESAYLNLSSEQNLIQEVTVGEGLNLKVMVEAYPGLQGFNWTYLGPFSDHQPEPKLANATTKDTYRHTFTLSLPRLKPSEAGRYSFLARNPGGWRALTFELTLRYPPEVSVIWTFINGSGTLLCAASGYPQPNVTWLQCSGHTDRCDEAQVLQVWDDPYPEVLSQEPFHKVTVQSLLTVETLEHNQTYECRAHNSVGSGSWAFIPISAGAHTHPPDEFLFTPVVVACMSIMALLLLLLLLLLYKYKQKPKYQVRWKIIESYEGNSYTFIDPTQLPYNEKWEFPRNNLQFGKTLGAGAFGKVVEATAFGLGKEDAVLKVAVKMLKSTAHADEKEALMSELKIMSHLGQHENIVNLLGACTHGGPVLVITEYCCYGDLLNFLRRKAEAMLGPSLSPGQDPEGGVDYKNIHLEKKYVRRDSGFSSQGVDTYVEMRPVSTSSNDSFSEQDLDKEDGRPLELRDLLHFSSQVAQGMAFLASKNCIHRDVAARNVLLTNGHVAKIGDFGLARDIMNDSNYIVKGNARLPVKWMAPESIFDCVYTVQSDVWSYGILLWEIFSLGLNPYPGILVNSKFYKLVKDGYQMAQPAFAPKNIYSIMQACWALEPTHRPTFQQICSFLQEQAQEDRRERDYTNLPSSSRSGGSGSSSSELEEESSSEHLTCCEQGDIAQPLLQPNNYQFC
Protocol: Cells were lysed immediately after stimulation and lysates spun at 4° C. for 20 mins. Supernatant was transferred to new microfuge tubes. For each sample, 500 μg of total protein was immunoprecipitated overnight with a rabbit polyclonal antibody to bead-conjugated human CSF1R (Santa Cruz Biotechnology, CA). A p-CSF1R Western blot was then performed, using anti-phospho-CSF1R (Tyr723) antibody (Cell Signaling Technology, Beverly, Mass.) at 1:1000 dilution.

osteoclast development = assay: Murine osteoclast development in vitro (bone marrow cells + M-CSF and RANKL, TRAP quantitation); assay type: cell-based, mice
Protocol: Bone marrow cells were isolated from female Balb/c mice and cultured either in medium alone or with addition of 10 ng/ml murine M-CSF and 100 ng/ml murine RANK ligand (RANKL) from day 0 to induce osteoclast development. […] Osteoclast development on day 7 was assessed by colorimetric quantitation of tartrate resistant acid phosphatase activity (TRAP) as well as counting TRAP positive cells with >3 nuclei.
TRAP staining and quantitation were performed at day 6.

[1] = tested on: 435/HAL-luc breast cancer bone metastases; assay: 435/HAL-luc experimental bone metastasis model, bioluminescence imaging of tumor growth; assay type: in vivo, mice
Protocol: The MDA-MB-435-HAL-luc breast cancer xenograft model was used to confirm significant inhibition of the growth of breast cancer bone metastases. The presence of live tumor cells was monitored by bioluminescence imaging with the Xenogen IVIS™ system.
The human breast carcinoma cell line 435/HAL was obtained (Pharmacia Corp., St. Louis, Mo.). […] Stable transfection of 435/HAL cells with luciferase (light emitting enzyme of firefly Photinus pyralis) was then performed. The cells were cotransfected with pGL3-control (Promega, Madison, Wis.) and pTK-Hygro (Clontech, Palo Alto, Calif.) at a 1:4 ratio using Lipofectamine 2000 (Invitrogen, Carlsbad, Calif.). Cells were maintained in Hygromycin (200 μg/ml) (Invitrogen) and resistant colonies isolated by ring cloning. Hygro-resistant colonies were screened for luciferase expression using Promega brite-glo reagent, normalized as RLU/μg protein. A subclone with the highest luciferase activity was selected, which we refer to as ‘435/HAL-luc.’ […]
Mice were injected intraperitoneally with 150 mg/kg of luciferin (Xenogen Corp., Alameda, Calif.), followed by anesthetization with Ketamine/Xylazine five minutes later. […] Briefly, mice were placed on the temperature-controlled bed of the imaging chamber and a gray-scale whole body image of the ventral side of the mice was captured, followed by an overlay of a bioluminescence map representing the spatial distribution of photons detected from cleaved luciferin in the cancer cells expressing luciferase. […] The bioluminescent signal was quantified by counting the pixels within the area drawn around each site of photon emission, using a customized version of the IGOR Pro version 4.0 Software (WaveMetrics, Inc., Lake Oswego, Oreg.) called Living Image version 2.11 (Xenogen Corporation, Alameda, Calif.). The sum of all detected photon counts within a region of interest containing the entire cancer lesion was determined. For evaluation of tumor growth inhibition, the Student's t test was used to assess differences in photon emission readings between treated and control groups (p<0.05 was considered significant). […]

serum pyridinoline (PYD) = assay: Serum PYD ELISA in mice bearing 435/HAL-luc bone metastases (osteolysis); assay type: in vivo
From the text: Athymic mice were inoculated with 3×10^6 435/HAL-luc cells into the left ventricle of the heart on day 0. Twenty days later, mice were imaged using the IVIS™ imaging system and placed into two matched groups of 16 mice based on photon emission, a measure of bioluminescence of the cancer. […] Mice were imaged approximately once a week. […] The femur, mandible and spines were collected from mice treated with either compound 1 or its vehicle, and fixed in Streck's Tissue Fixative prior to bone density scanning and histological analysis. Serum was also collected for measurement of collagen breakdown product pyridinoline (PYD) in the circulation.
Serum PYD ELISA: The parental breast carcinoma line MDA-MB-435, is very well characterized as having osteolytic activity (32). […] Serum samples were collected, aliquoted and frozen at −80° C. until analysis. Serum PYD was measured using a competitive enzyme immunoassay kit following the manufacturer's protocol (Serum PYD, Quidel 8019, San Diego, Calif.). Samples were measured in duplicate.

CCN(CC)CCNC(=O)c1c(C)[nH]c(C=C2C(=O)Nc3ccc(F)cc32)c1C [compound 1, 5-(5-Fluoro-2-oxo-1,2-dihydro-indol-3-ylidenemethyl)-2,4-dimethyl-1H-pyrrole-3-carboxylic acid (2-diethylamino-ethyl)-amide]
inhibition of CSF1R phosphorylation (human CSF1R): inhibits CSF1R phosphorylation in a dose-dependent manner; also recorded: inhibits phosphorylation of M-CSF receptors
effect of time of addition of compound (D0, D2 or D4) on osteoclast development (osteoclast development; 100 nM and 10 nM, TRAP at day 6, FIG. 2b): the later precursor cells are exposed to compound 1, the less inhibitory effect the compound exhibits; also recorded: inhibits an early stage of osteoclast development, but not later stages
concentrations at which development of osteoclasts is inhibited (osteoclast development; Balb/c bone marrow cells, M-CSF 10 ng/ml + RANKL 100 ng/ml, day 7, TRAP, FIG. 2a): 10 to 100 nM
inhibition of osteoclast development (osteoclast development; in vitro, FIG. 2a): inhibits osteoclast development in a dose-dependent manner
live tumor / growth of breast cancer metastases by bioluminescence imaging ([1]; MDA-MB-435-HAL-luc xenograft model): significant reduction in live tumor; also recorded: inhibits the growth of breast cancer metastases
photon count emission from the mouse bones ([1]; at both doses (80 or 40 mg per kg once daily by gavage), FIG. 3): greatly decreased
inhibition of tumor growth in bone (photon emission, long bones and mandibles) ([1]; day 41, 80 or 40 mg per kg once daily by gavage, p=0.001): 89%
serum PYD mean value (serum pyridinoline (PYD); 80 mg per kg): 1.3 ± 0.16 ng/mL
reduction of serum PYD levels compared to vehicle treated mice (serum pyridinoline (PYD); 14 compound 1 treated vs 12 vehicle treated mice, p=0.047): 30%
osteolysis as measured by pyridinoline levels (serum pyridinoline (PYD); mice with breast cancer metastases to bone, FIG. 4): less osteolysis
